Data set [1] can be described thus: permeation of fluorescent dyes from multi-layered device into buccal tissue. Type of data set: in vitro ADME, lamb. From the text: FIGS. 5A-5C show three images taken from lamb buccal tissue at different time points.
In another representative embodiment, a multi-layered device may be used for the delivery of multiple agents over a prolonged period of time (FIG. 4, FIG. 5). If the example of mucositis is again used, multiple layers may include a pain mitigator in free form, a pain mitigator encapsulated within microparticles and an agent for the treatment of mucositis encapsulated within microparticles. The initial freeform layer is able to provide immediate pain relief, and the subsequent particle-encapsulated layers are capable of delivering microparticles beneath the tissue, where they further release their agents over a period of days, providing longer-term pain relief and treatment. FIG. 4 and FIG. 5 illustrate this effect. Fluorescence was used in order to provide detection. As shown, the multiple fluorescent layers released over time and permeated the tissue at different rates, providing a customized treatment.

Data set [2] in a line: release profile of cisplatin from particles, detected by atomic absorption spectrometry. The format is physicochemical. The conditions noted are these: over 60 hours; particles of average diameter 500 to 2000 nm. From the text: FIG. 1 is a graph showing the release profile of example particles having an average diameter in the range of 500 to 2000 nm. […] Cisplatin was used for this experiment due to its use in the treatment of oral cancer and its ease of detection via atomic absorption spectrometry (AAS).

These results are taken from patent US10159651B2, “Two-stage microparticle-based therapeutic delivery system and method” (Privo Technologies, Inc., priority 2016, dated 2018).

Structures are written as SMILES.

For `O=C1OC2(c3ccc(O)cc3Oc3cc(O)ccc32)c2ccc(N=C=S)cc21` [FITC], the permeation into tissue entry is “beginning to permeate the tissue” in data set [1] (after 30 minutes) and “permeating deeper into the tissue” in data set [1] (after 1 hour).
In the case of `N.N.[Cl][Pt][Cl]` [cisplatin, Cisplatin], the “cisplatin released from NPs” value in data set [2] is recorded as 45%.
